{"source": "patent US8624027B2", "about": "“Combination therapy for treating cancer and diagnostic assays for use therein” (AbbVie Inc., priority 2005, dated 2014)", "key": {"B-cell lymphoma": {"tested_on": "B-cell lymphoma", "experiment": "Oral efficacy of EXAMPLE 1 in combination therapy, antitumorigenesis on B-cell lymphoma", "type": "in vivo", "settings": "without EXAMPLE 1"}, "[1]": {"tested_on": "tumor cell lines (D54MG, NCI-H460, A549, PC3, EJ1, HCT116, DLD1, SW620, 786-O)", "experiment": "Combination screen of VX-680, cell viability with Bliss additivism analysis", "type": "cell-based, human", "settings": "VX-680 with ABT-263 in dose-response; viability 3 days after exposure", "protocol": "Cell viability was determined 3 days after exposure to the combination regimens. Synergy or antagonism of drug combinations was determined using the Bliss additivism model of drug-drug interactions (See, Berenbaum, M. C., Cancer Res 35, 269-335 (1981)). The value in excess of Bliss additivism for each dose was determined for all combinations and defined as follows: >15=synergistic, 0-15=no interaction, <−15=antagonistic. These values are expressed in a heatmap using SPOTFIRE® (TIBCO®) data analysis software where synergy is indicated in red, no interaction in gray, and antagonism in blue. […] These values are not applicable for Bliss analysis and were excluded from the heatmap. Compounds tested in combination are shown at the right. The targets/mechanisms of action of each of these agents and the corresponding dose responses for the combination screen is summarized in Table A in EXAMPLE 40.\n(§1) Generally, cells were seeded at >90% viability (as determined by trypan blue exclusion) into 96-well plates overnight, treated with compounds or siRNAs for indicated duration, and the overall cell viability was determined by measuring luminescence.\nCombined response scores greater than 15 were considered synergistic. […]"}, "HCT116 cells": {"tested_on": "HCT116 cells", "experiment": "Aurora inhibitors in combination with ABT-263, cell viability (CellTiter-GLO)", "type": "cell-based, human", "settings": "1 μM ABT-263, 72 hours; MLN8054 at Aurora A-selective concentrations (<5 μM)", "protocol": "24 hours post-transfection, cells were treated with ABT-263 in dose response, and cell viability was determined 72 hours after the addition of ABT-263. […] MLN8054 (FIG. 9C) or AZD1152 (FIG. 9D) were tested in combination with DMSO or 1 μM ABT-263 in HCT116 cells. Cell viability was determined 72 hours after treatment. […] EJ1 (FIG. 9F) or HCT116 (FIG. 9G) cells were transfected with a luciferase siRNA or the same set of siRNAs against Bcl-2, Bcl-XL, or Mcl-1 siRNAs as in FIG. 9E. 24 hours post-transfection, cells were treated with different amounts of AZD1152. Cell viability was determined 72 hours after exposure to AZD1152. […] Cell viability was determined 72 hours post-transfection. In all figures, cell viability was expressed as the percentage of untransfected, DMSO-treated control cells. The red viability curve represents a synergistic combination.\nas §1"}, "mantle cell lymphoma": {"tested_on": "mantle cell lymphoma", "experiment": "Oral efficacy of EXAMPLE 1 in combination therapy, antitumorigenesis on mantle cell lymphoma", "type": "in vivo", "settings": "without EXAMPLE 1"}}}
{"molecule": "CO[C@H]1C[C@@H]2CC[C@@H](C)[C@@](O)(O2)C(=O)C(=O)N2CCCC[C@H]2C(=O)O[C@H]([C@H](C)C[C@@H]2CC[C@@H](O)[C@H](OC)C2)CC(=O)[C@H](C)/C=C(\\C)[C@@H](O)[C@@H](OC)C(=O)[C@H](C)C[C@H](C)/C=C/C=C/C=C/1C", "note": "[rapamycin, reference compound]", "values": [{"measurement": "tumor regressions, agent alone", "setting": "B-cell lymphoma", "value": 10, "unit": "%"}]}
{"molecule": "Cc1cc(Nc2cc(N3CCN(C)CC3)nc(Sc3ccc(NC(=O)C4CC4)cc3)n2)[nH]n1", "note": "[VX-680, cyclopropane carboxylic acid of {4-[4-(4-methyl-piperazin-1-yl)-6-(5-methyl-2H-pyrazol-3-ylamino)-pyrimidin-2-ylsulphanyl]-phenyl}-amide]", "values": [{"measurement": "Bliss analysis of cell viability, combination with ABT-263", "setting": "[1]", "value": "synergistic (>15=synergistic)"}]}
{"molecule": "O=C(O)c1ccc(Nc2ncc3c(n2)-c2ccc(Cl)cc2C(c2c(F)cccc2F)=NC3)cc1", "note": "[MLN8054]", "values": [{"measurement": "synergy in combination with ABT-263 (cell viability)", "setting": "HCT116 cells", "value": "no synergy"}]}
{"molecule": "rituximab: antibody, RITUXAN® (rituximab) [reference compound]", "values": [{"measurement": "tumor regressions, agent alone", "setting": "B-cell lymphoma", "value": "no tumor regressions"}]}
{"molecule": "CC(C)C[C@H](NC(=O)[C@H](Cc1ccccc1)NC(=O)c1cnccn1)B(O)O", "note": "[bortexomib, reference compound]", "values": [{"measurement": "tumor regressions, agent alone", "setting": "mantle cell lymphoma", "value": "no tumor regressions"}]}
